Assay results: patent US8889878B2, “Haloalky-substituted amides as insecticides and acaricides” (Bayer CropScience AG, priority 2009, dated 2014)

Assay: logP by HPLC on reverse-phase column (EEC Directive 79/831 Annex V.A8)
Type: physicochemical
Settings: for chromatographic logP: reverse-phase C18 HPLC column
Protocol: The logP values reported in the above Tables and Preparation Examples were determined according to EEC Directive 79/831 Annex V.A8 by HPLC (High Performance Liquid Chromatography) on a reverse-phase column (C18). Temperature 43° C.

[1] = pH 2.7, HPLC, C18 reverse phase, 43° C., acidic range pH 2.7, calibration with alkan-2-ones
[2] = HPLC, C18 reverse phase, 43° C., acidic range pH 2.7, calibration with alkan-2-ones
[3] = HPLC-MS, HPLC on reverse-phase column

chromatographic logP [1] | SMILES | logP (HPLC-MS) | also measured
1.56 | O=C(NCc1ccccn1)c1ccc(Br)cc1C(F)(F)F [4-Bromo-N-(pyridin-2-ylmethyl)-2-(trifluoromethyl)benzamide] |  | 
 | N#Cc1ccc2cc(C(=O)NC(c3cccc(C(F)(F)F)c3)C(F)(F)F)[nH]c2c1 (stereo not drawn) [Ic-8] |  | logP [2]: HPLC-MS: logP = 3.51; mass
 | O=C(/C=C/c1ccc(C(=O)NCc2ncccn2)c(Br)c1)NC(c1cccc(C(F)(F)F)c1)C(F)(F)F (stereo not drawn) [Ia-133] | HPLC-MS: logP = 2.93; mass | 
 | CC(CF)NC(=O)c1ccc(/C=C/C(=O)NC(c2cccc(C(F)(F)F)c2)C(F)(F)F)cc1Br (stereo not drawn) [Ia-173] | HPLC-MS: logP = 3.35; mass | 
 | N#Cc1cc(/C=C/C(=O)NC(c2cccc(F)c2)C(F)(F)F)ccc1-n1cncn1 (stereo not drawn) [Ia-13] | HPLC-MS: logP = 2.61; mass | 
1.61 | NCc1ccc(/C=C/C(=O)NC(c2cccc(C(F)(F)F)c2)C(F)(F)F)cc1C(F)(F)F (stereo not drawn) [(2E)-3-[4-(Aminomethyl)-3-(trifluoromethyl)phenyl]-N-{2,2,2-trifluoro-1-[3-(trifluoro-methyl)phenyl]ethyl}acrylamide] |  | 
 | C#CC(C)NC(=O)c1cc2cc(C(=O)NC(c3cccc(C(F)(F)F)c3)C(F)(F)F)n(C)c2cc1Cl (racemic) [Ic-31] |  | logP [2]: HPLC-MS: logP = 3.73; mass
 | CC1CC1NC(=O)c1ccc(C=CC(=O)NC(c2cccc(C(F)(F)F)c2)C(F)(F)F)cc1C(F)(F)F (stereo not drawn) [Ia-261] |  | logP [3]: HPLC-MS: logP = 3.46; mass
 | O=C(/C=C/c1ccc(CNc2ccccn2)c(C(F)(F)F)c1)NC(c1cccc(C(F)(F)F)c1)C(F)(F)F (stereo not drawn) [Ia-263] |  | logP [3]: HPLC-MS: logP = 2.2; mass
3.17 | ON=C(c1cc(F)cc(C(F)(F)F)c1)C(F)(F)F (racemic) [2,2,2-Trifluoro-1-[3-fluoro-5-(trifluoromethyl)phenyl]ethanone oxime] |  | logP [2]: 3.21
 | O=C(C=Cc1ccc(C(=O)NCC=CCl)c(Cl)c1)NC(c1cccc(C(F)(F)F)c1)C(F)(F)F (mixture of isomers) [Ia-193] | HPLC-MS: logP = 3.58; mass | 
1.4 | Cc1cc(Br)ccc1C(=O)NCc1ccccn1 [4-Bromo-2-methyl-N-(pyridin-2-ylmethyl)benzamide] |  | 
 | CC(=O)Nc1ccc(/C=C/C(=O)NC(c2cccc(C(F)(F)F)c2)C(F)(F)F)cc1 (stereo not drawn) [Ia-3] | HPLC-MS: logP = 2.95; mass | 
 | O=C(O)/C=C/c1ccc(C(=O)NCc2ccccc2)c(C(F)(F)F)c1 [(2E)-3-[4-(Phenylmethyl)carbamoyl)-3-trifluoromethylphenyl]acrylic acid] |  | logP (pH 2.7): 2.12
0.92 | NCc1ccc(Br)cc1C(F)(F)F [1-[4-Bromo-2-(trifluoromethyl)phenyl]methanamine] |  | 
 | O=C(NC1CC1)c1cc2cc(C(=O)NC(c3cccc(C(F)(F)F)c3)C(F)(F)F)n(Cc3ccccc3)c2cc1Cl (racemic) [Ic-28] |  | logP [2]: HPLC-MS: logP = 4.25; mass
 | O=C(/C=C/c1ccc(C(=O)NC2C[S+]([O-])C2)c(C(F)(F)F)c1)NC(c1cccc(C(F)(F)F)c1)C(F)(F)F (stereo not drawn) [Ia-227] | HPLC-MS: logP = 2.71; mass | 
 | O=C(/C=C/c1ccc(CNC(=O)C2CC2)c(C(F)(F)F)c1)NC(c1cccc(C(F)(F)F)c1)C(F)(F)F (stereo not drawn) [Ia-240] | HPLC-MS: logP = 3.76; mass | 
 | N#Cc1cc(/C=C/C(=O)NC(c2cc(Cl)cc(Cl)c2)C(F)(F)F)ccc1-n1cncn1 (stereo not drawn) [Ia-16] | HPLC-MS: logP = 3.33; mass | 
3.11 | CC(C)(C)OC(=O)c1ccc(C=O)c(O)c1 [tert-Butyl 4-formyl-3-hydroxybenzoate] |  | 
 | Cn1nccc1CNC(=O)c1ccc(/C=C/C(=O)NC(c2cccc(C(F)(F)F)c2)C(F)(F)F)cc1Cl (racemic) [Ia-189] | HPLC-MS: logP = 2.93; mass | 
 | Cc1cc(/C=C/C(=O)NC(c2cc(Cl)cc(Cl)c2)C(F)(F)F)ccc1C(=O)NC1CC1 (stereo not drawn) [Ia-12] | HPLC-MS: logP = 3.33; mass | 
1.14 | Cc1cc(/C=C/C(=O)O)ccc1C(=O)NC1CC1 [(2E)-3-[4-(Cyclopropylcarbamoyl)-3-methylphenyl]acrylic acid] |  | 
0.97 | N#Cc1cc(/C=C/C(=O)O)ccc1-n1cncn1 [(2E)-3-[3-Cyano-4-(1H-1,2,4-triazol-1-yl)phenyl]acrylic acid] |  | 
 | O=C(/C=C/c1ccc(C(=O)NCc2ccccn2)c(C(F)(F)F)c1)NC(c1c(F)cccc1F)C(F)(F)F (stereo not drawn) [Ia-35] | HPLC-MS: logP = 2.46; mass | 

chromatographic logP [1] | SMILES | logP (HPLC-MS) | also measured
4.12 | CCOC(=O)c1cc2cc(C(=O)NC(c3cccc(C(F)(F)F)c3)C(F)(F)F)[nH]c2cc1Cl (stereo not drawn) [Ethyl 6-chloro-2-({2,2,2-trifluoro-1-[3-(trifluoromethyl)phenyl]ethyl}carbamoyl)-1H-indole-5-carboxylate] |  | 
3.1 | O=C(/C=C/c1ccc(C(=O)O)c(Cl)c1)NC(c1cccc(C(F)(F)F)c1)C(F)(F)F (stereo not drawn) [2-Chloro-4-[(1E)-3-oxo-3-({2,2,2-trifluoro-1-[3-(trifluoromethyl)phenyl]ethyl}amino)prop-1-en-1-yl]benzoic acid] |  | 
 | O=C(/C=C/c1ccc(C(=O)Nc2cccnc2)c(C(F)(F)F)c1)NC(c1cccc(C(F)(F)F)c1)C(F)(F)F (stereo not drawn) [Ia-53] | HPLC-MS: logP = 2.76; mass | 
 | CC(NC(=O)c1ccc(/C=C/C(=O)NC(c2cccc(C(F)(F)F)c2)C(F)(F)F)cc1C(F)(F)F)C1(Cl)CC1 (stereo not drawn) [Ia-171] | HPLC-MS: logP = 4.18; mass | 
 | O=C(O)/C=C/c1ccc(C(=O)Nc2ccccn2)c(C(F)(F)F)c1 [(2E)-3-[4-(Pyridin-2-yl)carbamoyl)-3-trifluoromethylphenyl]acrylic acid] |  | logP (pH 2.7): 1.69
 | CCOC1(NC(=O)c2ccc(/C=C/C(=O)NC(c3cccc(C(F)(F)F)c3)C(F)(F)F)cc2C)CC1 (stereo not drawn) [Ia-85] | HPLC-MS: logP = 3.27 mass | 
4.01 | CN(C(=O)/C=C/c1ccc(C#N)cc1)C(c1cccc(C(F)(F)F)c1)C(F)(F)F (stereo not drawn) [Ia-25, (2E)-3-(4-Cyanophenyl)-N-methyl-N-{2,2,2-trifluoro-1-[3-(trifluoromethyl)phenyl]-ethyl}acrylamide] |  | 
 | Cn1ccc(CNC(=O)c2ccc(/C=C/C(=O)NC(c3cccc(C(F)(F)F)c3)C(F)(F)F)cc2Cl)n1 (stereo not drawn) [Ia-186] | HPLC-MS: logP = 2.95; mass | 
 | CC(=O)NCc1ccc(/C=C/C(=O)NC(c2cccc(C(F)(F)F)c2)C(F)(F)F)cc1C (stereo not drawn) [Ia-249] | HPLC-MS: logP = 2.9; mass | 
 | Cn1nccc1NC(=O)c1ccc(/C=C/C(=O)NC(c2cccc(C(F)(F)F)c2)C(F)(F)F)cc1Cl (racemic) [Ia-188] | HPLC-MS: logP = 2.73; mass | 
 | O=C(/C=C/c1ccc(C(=O)Nc2ncc(Cl)cn2)c(Cl)c1)NC(c1cccc(C(F)(F)F)c1)C(F)(F)F (racemic) [Ia-199] | HPLC-MS: logP = 3.47; mass | 
 | COC(=O)c1ccc(/C=C/C(=O)NC(c2cccc(C(F)(F)F)c2)C(F)(F)F)cc1C (stereo not drawn) [Ia-26] | HPLC-MS: logP = 4.09; mass | 
 | O=C(/C=C/c1ccc(C(=O)Nc2cccc(Cl)n2)c(C(F)(F)F)c1)NC(c1cccc(C(F)(F)F)c1)C(F)(F)F (stereo not drawn) [Ia-120] | HPLC-MS: logP = 4.33; mass | 
 | O=C(/C=C/c1ccc(NC(=O)c2cccnc2Cl)cc1)NC(c1cc(Cl)cc(Cl)c1)C(F)(F)F (stereo not drawn) [Ia-2] | HPLC-MS: logP = 3.69; mass | 
 | Cn1c(C(=O)NC(c2cccc(C(F)(F)F)c2)C(F)(F)F)cc2cc(C(=O)NC3CSC3)c(Cl)cc21 (racemic) [Ic-33] |  | logP [2]: HPLC-MS: logP = 3.82; mass
 | CCC(=O)NCc1ccc2oc(C(=O)NC(c3cccc(C(F)(F)F)c3)C(F)(F)F)cc2c1 (stereo not drawn) [Ic-14] |  | logP [2]: HPLC-MS: logP = 3.09; mass
1.26 | O=C(O)/C=C/c1cc(C(F)(F)F)c(C(=O)NC2CC2)cn1 [(2E)-3-[5-(Cyclopropylcarbamoyl)-4-(trifluoromethyl)pyridin-2-yl]acrylic acid] |  | 
 | O=C(/C=C/c1ccc(C(=O)NC2CC2)cc1Cl)NC(c1cccc(Cl)c1)C(F)(F)F (stereo not drawn) [Ia-234] | HPLC-MS: logP = 3.3; mass | 
 | Cc1cccc(C(NC(=O)/C=C/c2ccc(C(=O)NC3CC3)c(C(F)(F)F)c2)C(F)(F)F)c1 (stereo not drawn) [Ia-232] | HPLC-MS: logP = 3.17; mass | 
 | COC(=O)c1ccc(NC(=O)c2ccc(/C=C/C(=O)NC(c3cccc(C(F)(F)F)c3)C(F)(F)F)cc2Cl)nc1 (stereo not drawn) [Ia-218] | HPLC-MS: logP = 3.92; mass | 
2.95 | CCOC(=O)c1cc(I)c(N)cc1Cl [Ethyl 4-amino-2-chloro-5-iodobenzoate] |  | 
 | CC(C)(C)OC(=O)NCc1ccc(/C=C/C(=O)NC(c2cccc(C(F)(F)F)c2)C(F)(F)F)cc1C(F)(F)F (stereo not drawn) [tert-Butyl {4-[1E)-3-oxo-3-({2,2,2-trifluoro-1-[3-(trifluoromethyl)phenyl]ethyl}amino)prop-1-en-1-yl]-2-(trifluoromethyl)benzyl}carbamate] |  | chromatographic logP [2]: 4.4
 | CS(=O)(=O)c1ccc2[nH]c(C(=O)NC(c3cccc(C(F)(F)F)c3)C(F)(F)F)cc2c1 (stereo not drawn) [Ic-9] |  | logP [2]: HPLC-MS: logP = 2.92; mass
3.1 | O=C(O)c1ccc2cc(C(=O)NC(c3cccc(C(F)(F)F)c3)C(F)(F)F)oc2c1 (stereo not drawn) [2-({2,2,2-Trifluoro-1-[3-(trifluoromethyl)phenyl]ethyl}carbamoyl)-1-benzofuran-6-carboxylic acid] |  | 

SMILES | chromatographic logP [1] | logP (HPLC-MS) | also measured
Cc1cc(/C=C/C(=O)NC(c2cccc(C(F)(F)F)c2)C(F)(F)F)ccc1C(=O)O (stereo not drawn) [2-Methyl-4-[(1E)-3-oxo-3-({2,2,2-trifluoro-1-[3-(trifluoromethyl)phenyl]ethyl}amino)prop-1-en-1-yl]benzoic acid] | 3.14 |  | 
CC(C)(C)OC(=O)NC1CCc2cc(/C=C/C(=O)O)ccc21 (stereo not drawn) [(2E)-3-{1-[(tert-Butoxycarbonyl)amino]-2,3-dihydro-1H-inden-5-yl}acrylic acid] | 2.47 |  | 
CC(C)(C)OC(=O)NCc1ccc(/C=C/C(=O)O)cc1C(F)(F)F [(2E)-3-[4-{[tert-Butoxycarbonyl)amino]methyl}-3-(trifluoromethyl)phenyl]acrylic acid] | 2.67 |  | 
CC(C)(C)OC(=O)c1ccc2cc(C(=O)O)oc2c1 [6-(tert-Butoxycarbonyl)-1-benzofuran-2-carboxylic acid] | 2.58 |  | 
